Results as given in patent US6677376B1, “Non-peptidic cyclophilin binding compounds and their use” (Guilford Pharmaceuticals, Inc., priority 1999, dated 2004).

Tests used:
[1] = system: dorsal root ganglion (DRG) cells; experiment: Neurite outgrowth in dorsal root ganglion (DRG) explant cultures; format: cell-based, mouse; conditions: for neuronal cell growth/neurite extension (images): compared to control, 48 hrs; for neurotrophic or neuroprotectant activity: assay not specified
Protocol: FIG. 7: Primary DRG cultures were used to test for neurotrophic, neurite outgrowth promoting, and neuroregenerative activity. Each of the compounds was incubated with cells at a concentration of 1 μM for 48 hours, as detailed in the examples.
Spinal cord and dorsal root ganglion (DRG) cells from adult mice can be isolated by micro-dissection. The spinal cord with attached DRGs from an adult mouse ([…]) is removed. Spinal nerves are cut away using micro-dissection scissors and any excess material is trimmed until the DRG is free. Using sharp micro-dissecting scissors, a transverse cut is made in the peripheral nerve, leaving 1-2 mm attached, and the explant placed into Petri dish and covered with plating media. When finished collecting all DRGs, the spinal nerve is trimmed to about […] in length. Then embed the explant in 30 μL of reduced growth factor Matrigel on a circular coverslip, and place in a […] culture dish. Cover the sensory ganglion explant with 2 mls of media. Compounds, drugs or control solutions are added from 10× stocks, and incubated at 37° C., 5% CO2, 95% humidity for 48 hrs. Wash cultures twice with PBS, and fix with 10% formalin for 30 minutes. Wash the fixed cultures twice with PBS and store refrigerated in PBS.
Place cultures in Block Buffer (5% Horse Serum, 5% Goat Serum, 1% Triton X, PBS pH=7.4) overnight, while rotating, at a temperature of 4° C. Add primary antibody (Beta tubulin, Sigma Chemical Co.) diluted in Block Buffer and incubate overnight at 4° C. Wash 5 times with PBS and apply secondary antibody (Alexa 488 Goat Anti-Mouse) diluted in block buffer. Incubate overnight at 4° C. Wash 5 times with PBS and leave overnight at 4 degrees. Coverslip the cultures and measure total neurite length from the end of the attached spinal nerve. Lengths of all neurites are quantitated and compared to those present in vehicle-treated control DRGs.

spinal motor neurons = experiment: Neuroprotection assay: THA neurotoxicity in spinal cord slice cultures; format: cell-based, Sprague-Dawley rat; conditions: THA 200 μM + compound 10 μM, primary cultures of spinal motor neurons
Protocol: For each of FIGS. 1-7, the bar graphs represent the number of viable neurons after a specified treatment regimen employed in a neuroprotective activity assay. The cells of the experiments were treated with a control solution, a neurotoxic solution, and neurotoxic+experimental compound solution. The statistical significance, p, is calculated using the standard 2 tailed Student's t test.
Each experiment consisted of two 6-well plates with 5 slices from 4 different animals per well. Media changes were performed every 3 to 4 days. […] The control was an untreated sample with 0.1% DMSO as vehicle. The THA control was a THA treated sample with 0.1% DSMO as vehicle. Two wells were used per condition. One media change with new THA and compounds was performed. […]
Quantification of surviving neurons was performed on a Ziess Axiovert microscope. Neuronal survival was determined by observing an intact neuronal cell body with processes located ventrally of the central canal in each hemisphere. […] Each hemisphere was counted individually. The statistics were performed with StatView software on a minimum of three different experiments per condition and significance was determined as compared to THA control. The percent of protection was determined from the average number of living neurons by the following equation: (drug treatment condition−THA control)/(Untreated control−THA control).

CyP A = CyP A (Homo sapiens, UniProt P62937)
Chain of CyP A (P62937 whole entry): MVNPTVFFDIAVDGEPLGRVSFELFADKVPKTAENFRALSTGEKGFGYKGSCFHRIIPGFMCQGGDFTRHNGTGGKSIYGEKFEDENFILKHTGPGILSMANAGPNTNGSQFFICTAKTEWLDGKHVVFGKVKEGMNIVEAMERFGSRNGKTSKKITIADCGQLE
Protocol: A number of substrates for rotamase are known in the art or can be derived from those known. Typically, the substrate contacts a sample containing a protein with rotamase activity and the conversion of the substrate is detected after a period of time. The method for detecting conversion of the substrate will vary with the particular substrate chosen.
The absorbance at 390 nm versus time is monitored for 90 seconds using a spectrophotometer and the rate constants are determined from the absorbance versus time data files.
While CyP A is used in these examples, other CyP proteins can be substituted.

Molecule	neuronal cell growth/neurite extension (images) [1]	neuroprotective activity (number of viable neurons) (spinal motor neurons)	neurotrophic or neuroprotectant activity [1]	other results
O=C(Nc1ccc(I)cc1)Nc1cc(NC(=O)Nc2ccc(I)cc2)c(Br)cc1Br [Compound 3]	increase in neuronal cell growth/neurite extension	displays neuroprotective activity	–	–
CSc1ccc(Cl)cc1C(=O)Nc1cccc(NC(=O)c2cc(Cl)ccc2SC)c1 [Compound 6]	increase in neuronal cell growth/neurite extension	–	possess neurotrophic or neuroprotectant activity	–
O=C(Nc1ccccc1)Nc1cc(NC(=O)Nc2ccccc2)cc(C(F)(F)F)c1 [Compound 7]	increase in neuronal cell growth/neurite extension	–	possess neurotrophic or neuroprotectant activity	–
O=C(NCc1cccc2ccccc12)c1cccc(NC(=O)c2cc(Cl)cc(Cl)c2)c1 [Compound 16, {3-[(3,5-dichlorophenyl)carbonylamino]phenyl}-N-(naphthylmethyl) formamide]	–	–	–	melting point: 205 to 208 °C
N#Cc1cccc(NC(=O)NCc2cccc(CNC(=O)Nc3cccc(C#N)c3)c2)c1 [Compound 32]	–	–	–	% Inhibition at 10 μM (CyP A): None detected
cyclosporin A [reference compound]	–	maintains neuronal viability	–	–
